Legend:
[1] = molecular target: T1, Histone deacetylase (Homo sapiens) (UniProt Q13547+O15379+Q9UBN7+Q92769+Q9UQL6+Q8WUI4+Q9BY41+Q96DB2+P56524+Q9UKV0+Q969S8); details: HeLa, at 0.01 µM
Description: Inhibition of HDAC in human HeLa cell extracts using Fluor de Lys as substrate at 0.01 uM by fluorescence assay

[2] = molecular target: T1, Histone deacetylase (Homo sapiens); details: HeLa, at 0.1 µM
Description: Inhibition of HDAC in human HeLa cell extracts using Fluor de Lys as substrate at 0.1 uM by fluorescence assay

[3] = molecular target: T1, Histone deacetylase (Homo sapiens); details: HeLa, at 1 µM
Description: Inhibition of HDAC in human HeLa cell extracts using Fluor de Lys as substrate at 1 uM by fluorescence assay

Histone deacetylase = test: Inhibition of HDAC in human HeLa cell extracts using Fluor de Lys as substrate by fluorescence assay; assay type: protein assay
HCT-116 = test: Antiproliferative activity against human HCT116 cells after 5 days by Alamar Blue assay; assay type: functional, cell-based; details: HCT-116, 120 h

inhibition [1]	inhibition [2]	inhibition [3]	IC50 (Histone deacetylase)	IC50 (HCT-116)	Structure (SMILES)
< 20%	< 20%	42%	–	–	COC1(OC)c2ccccc2C(=O)N(CCCCCC(=O)NO)c2ccccc21
< 20%	50%	78%	111 nM	600 nM	O=C(CCCCCN1C(=O)c2ccccc2C(F)(F)c2ccccc21)NO
21%	58%	81%	60 nM	2000 nM	O=C(CCCCCN1C(=O)c2ccccc2C(O)c2ccccc21)NO (centres undefined)
< 20%	< 20%	< 20%	–	–	O=C(CCCN1C(=O)c2ccccc2Cc2ccccc21)NO
21%	67%	84%	42 nM	710 nM	O=C(CCCCCN1C(=O)c2ccccc2Cc2ccccc21)NO
< 20%	62%	84%	53 nM	1600 nM	O=C(CCCCCN1C(=O)c2ccccc2C(F)c2ccccc21)NO (centres undefined)
< 20%	< 20%	29%	–	–	O=C(CCCCN1C(=O)c2ccccc2Cc2ccccc21)NO
11%	47%	77%	153 nM	> 1000 nM	O=C(CCCCCn1c(=O)c2ccccc2c(=O)c2ccccc21)NO
